# In patent US8629164B2, “Inhibitors of NF-κB” (Profectus Biosciences, Inc., priority 2009, dated 2014):
# Columns and labels:
# [1] = test system: collagen-induced arthritis; assay: Mouse model of collagen-induced rheumatoid arthritis (CIA)
# Description: Male DBA mice developed arthritis by injecting bovine CII collagen in tails at day 1 and day 21.
# [2] = test system: NF-κB; assay: 293-cell pTRH1-NF-κB-dscGFP reporter assay, TNF-α induced; assay type: cell-based; settings: Homo sapiens, HEK293, HEK293 cells, NF-κB driven GFP expression; read-out: NF-kB/293/GFP EC50
# Procedure: (§1) Inhibition of NF-κB in cells by the compound of Example 1. Two reporter cell assays were used to determine the ability of the compound of Example 1 to inhibit NE-KB driven transcription. The first assay was a 293-cell based assay with a stably integrated pNF-κB-luc reporter plasmid containing 3 NF-κB promoter elements. The second assay was a 293-cell based assay with a stably integrated pTRH1-NF-κB-dscGFP reporter containing 4 NF-κB promoter elements. Cells were treated with 0, 0.2, 1, 10, 20 and 40 μM of the compound of Example 1 for 2 hours then were induced with 20 ng/ml TNF-α for 18 hours. Following the induction, luminescence or fluorescence was quantified using a Beckman-Coulter 2300 plate reader. […] These values represent the median value generated from three independent experiments±the standard error. As a control, 0.5% DMSO treated and untreated cells were compared to verify that the Example 1 carrier had no effect on the expression of luciferase or in the readout of the assay. There was a slight decrease in the output from the assay in the DMSO treated population although it was not statistically significant. As a result of the controls, the decrease in activity in the drug treated samples was compared to the DMSO control sample.
# [3] = target: T1, p50 (Homo sapiens, UniProt P19838); assay: TransAM NF-κB Family DNA Binding ELISA, p50; settings: for IC50: p50 binding IC50 (uM), cells without % sign; for inhibition at 5 µM: read-out: p50 binding % inhibit. at 5 uM
# T1 sequence (P19838 1-433 limits assumed): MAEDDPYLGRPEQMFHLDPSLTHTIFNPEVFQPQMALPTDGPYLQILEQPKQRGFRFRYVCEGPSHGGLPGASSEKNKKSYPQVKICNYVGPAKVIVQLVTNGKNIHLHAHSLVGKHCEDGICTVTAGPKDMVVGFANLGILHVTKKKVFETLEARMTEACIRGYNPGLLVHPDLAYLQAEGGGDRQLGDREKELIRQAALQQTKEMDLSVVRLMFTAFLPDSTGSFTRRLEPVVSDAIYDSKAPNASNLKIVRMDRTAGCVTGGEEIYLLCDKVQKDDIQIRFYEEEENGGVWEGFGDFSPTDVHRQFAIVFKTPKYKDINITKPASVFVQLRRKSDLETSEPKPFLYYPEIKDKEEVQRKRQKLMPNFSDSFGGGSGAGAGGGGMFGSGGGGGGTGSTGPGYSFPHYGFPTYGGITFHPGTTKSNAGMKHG
# Procedure: (§3) Treated samples were then transferred to 30 μL Complete Binding Buffer (with DTT) in microplate wells pre-coated with the NF-κB consensus oligonucleotide. […] The plate was incubated for 1 hour at room temperature with gentle shaking and then washed 3 times with 200 μL 1× Wash Buffer. NF-κB p65, p50, p52, RelB, or c-Rel subunits bound to the plate were detected with 100 μL of the primary antibody (diluted 1:1000 in 1× Antibody Buffer) specific for that subunit. The plate was incubated for 1 hour at room temperature and then washed 3 times with 200 μL 1× Wash Buffer. Next, 100 μL of a HRP conjugated goat anti-rabbit antibody (diluted 1:1,000 in 1× Antibody Buffer) was added to each well. The plate was incubated for 1 hour at room temperature and then washed 4 times with 200 μL 1× Wash Buffer. 100 μL of room temperature Developing Solution was added to each well. The reaction was allowed to develop for 2-10 minutes until a medium dark blue color developed (depending on the subunit activity in the lot of extract or lot of recombinant protein used) and then the reaction was stopped with 100 μL Stop Solution yielding a yellow color. Absorbance was recorded using a Becton-Dickinson DTX 880 Multimode Detector at 450 nm with a reference wavelength subtracted at 620 nm.
# [4] = target: T2, p52 (Homo sapiens, UniProt Q00653); assay: TransAM NF-κB Family DNA Binding ELISA, p52; settings: for IC50: p52 binding IC50 (uM), cells without % sign; for inhibition at 5 µM: read-out: p52 binding % inhibit. at 5 uM, at 5 uM
# T2 sequence (Q00653 1-454 limits assumed): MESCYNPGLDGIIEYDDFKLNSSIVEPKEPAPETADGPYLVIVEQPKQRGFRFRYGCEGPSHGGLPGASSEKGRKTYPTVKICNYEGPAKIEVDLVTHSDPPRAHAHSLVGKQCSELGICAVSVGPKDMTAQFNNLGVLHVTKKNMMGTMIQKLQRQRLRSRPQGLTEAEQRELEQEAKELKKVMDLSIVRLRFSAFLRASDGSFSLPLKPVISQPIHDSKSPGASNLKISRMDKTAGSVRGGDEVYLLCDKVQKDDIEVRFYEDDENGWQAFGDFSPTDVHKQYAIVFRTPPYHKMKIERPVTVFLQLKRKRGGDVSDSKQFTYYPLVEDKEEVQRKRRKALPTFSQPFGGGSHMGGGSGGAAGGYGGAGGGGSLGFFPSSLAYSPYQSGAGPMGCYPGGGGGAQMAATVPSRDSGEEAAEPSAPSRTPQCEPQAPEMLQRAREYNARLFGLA
# Procedure: as §3
# [5] = test system: NF-κB; assay: 293-cell pNF-κB-luc reporter assay, TNF-α induced; assay type: cell-based; settings: HEK293 cells, NF-κB driven luciferase expression; read-out: 293/NFkB-luc EC50
# Procedure: as §1
# [6] = target: T3, c-Rel (Homo sapiens, UniProt Q04864); assay: TransAM NF-κB Family DNA Binding ELISA, c-Rel; settings: for inhibition at 5 µM: read-out: c-Rel binding % inhibit. at 5 uM, at 5 uM
# T3 sequence (Q04864 2-619 limits assumed): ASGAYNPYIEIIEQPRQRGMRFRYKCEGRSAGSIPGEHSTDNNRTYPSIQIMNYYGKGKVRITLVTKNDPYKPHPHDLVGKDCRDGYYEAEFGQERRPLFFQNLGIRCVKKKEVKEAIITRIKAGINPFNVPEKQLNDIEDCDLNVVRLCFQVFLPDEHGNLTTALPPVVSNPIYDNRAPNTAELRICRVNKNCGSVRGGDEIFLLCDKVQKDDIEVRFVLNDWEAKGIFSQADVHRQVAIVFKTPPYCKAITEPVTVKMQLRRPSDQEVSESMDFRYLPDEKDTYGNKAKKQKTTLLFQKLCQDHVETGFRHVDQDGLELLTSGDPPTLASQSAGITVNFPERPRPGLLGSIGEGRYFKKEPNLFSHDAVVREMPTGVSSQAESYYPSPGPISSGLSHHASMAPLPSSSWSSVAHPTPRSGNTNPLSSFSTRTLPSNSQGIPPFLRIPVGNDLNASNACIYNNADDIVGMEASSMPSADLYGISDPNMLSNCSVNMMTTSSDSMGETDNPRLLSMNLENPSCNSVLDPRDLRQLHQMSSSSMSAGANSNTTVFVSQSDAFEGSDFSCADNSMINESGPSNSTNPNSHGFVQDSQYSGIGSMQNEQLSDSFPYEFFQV
# Procedure: as §3
# [7] = test system: PGE2 release from RAW264.7 cells; assay: PGE2 release from LPS stimulated RAW264.7 cells; assay type: cell-based, mouse; settings: Mus musculus, RAW264.7, RAW 264.7 cells
# Procedure: (§2) Specifically, A and B show the effects of the compound of Example 1 on soluble PGE2 and Il-6 secretion from RAW264.7 cells stimulated by 1 μg/mL of LPS. The cells were treated with the indicated concentrations of the compound of Example 1 for 2 hours, and then LPS was added and incubation continued for 4 hours.
# LPS stimulation induces the expression of COX-2 the enzyme responsible for prostaglandin E2.
# [8] = target: T4, RelB (Homo sapiens, UniProt Q01201); assay: TransAM NF-κB Family DNA Binding ELISA, RelB; settings: for inhibition at 5 µM: read-out: RelB binding % inhibit. at 5 uM, at 5 uM
# T4 sequence (Q01201 1-579): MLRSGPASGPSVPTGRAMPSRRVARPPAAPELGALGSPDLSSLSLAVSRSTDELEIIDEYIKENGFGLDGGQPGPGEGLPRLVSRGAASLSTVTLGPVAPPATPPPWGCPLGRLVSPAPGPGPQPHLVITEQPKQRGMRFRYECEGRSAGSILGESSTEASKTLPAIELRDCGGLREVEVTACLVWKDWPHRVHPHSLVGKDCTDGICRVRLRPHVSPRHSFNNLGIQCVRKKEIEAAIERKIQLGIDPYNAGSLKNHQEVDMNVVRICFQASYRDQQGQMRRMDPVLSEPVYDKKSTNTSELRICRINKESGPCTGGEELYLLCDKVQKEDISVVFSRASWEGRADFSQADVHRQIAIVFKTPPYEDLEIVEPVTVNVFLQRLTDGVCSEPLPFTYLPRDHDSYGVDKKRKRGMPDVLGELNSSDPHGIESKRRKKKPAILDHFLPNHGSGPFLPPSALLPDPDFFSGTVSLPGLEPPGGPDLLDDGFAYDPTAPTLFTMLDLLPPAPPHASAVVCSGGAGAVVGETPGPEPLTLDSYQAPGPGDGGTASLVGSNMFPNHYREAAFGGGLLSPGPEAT
# T4 sequence (Q00653 1-454 partner limits assumed): T2 sequence (Q00653 1-454 limits assumed)
# Procedure: as §3
# [9] = target: p65 (RelA) (Homo sapiens, UniProt Q04206); assay: TransAM NF-κB Family DNA Binding ELISA, p65; settings: p65 binding IC50 (uM), binding to NF-κB sites
# p65 (RelA), sequence (Q04206 whole entry): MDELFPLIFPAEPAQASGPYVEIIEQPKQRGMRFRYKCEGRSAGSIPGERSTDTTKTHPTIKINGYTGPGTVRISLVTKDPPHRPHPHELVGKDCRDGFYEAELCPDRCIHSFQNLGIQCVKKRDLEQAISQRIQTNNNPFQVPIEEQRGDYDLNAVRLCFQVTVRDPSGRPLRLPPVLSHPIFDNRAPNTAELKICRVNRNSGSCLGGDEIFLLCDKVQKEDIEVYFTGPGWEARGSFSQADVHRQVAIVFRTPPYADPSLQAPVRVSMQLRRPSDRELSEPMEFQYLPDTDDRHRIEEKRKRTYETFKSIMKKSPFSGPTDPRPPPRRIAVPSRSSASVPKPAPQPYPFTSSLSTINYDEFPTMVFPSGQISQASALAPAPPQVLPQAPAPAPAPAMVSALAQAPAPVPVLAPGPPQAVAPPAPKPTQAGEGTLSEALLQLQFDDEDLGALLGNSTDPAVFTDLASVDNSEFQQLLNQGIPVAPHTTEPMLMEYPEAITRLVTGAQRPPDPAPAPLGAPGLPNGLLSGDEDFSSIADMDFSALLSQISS
# [10] = test system: IL-6 release from RAW264.7 cells; assay: IL-6 release from LPS stimulated RAW264.7 cells; assay type: cell-based, mouse; settings: Mus musculus, RAW264.7, RAW 264.7 cells
# Procedure: as §2, with “hours. […]” for “hours.”
Compound,"anti-inflammation effects vs vehicle treated group ([1]; Example 2 15 mg/kg s.c. qd 21-35, etanercept 50 ug/mouse ip qd 21-35, P<0.05)",histological evaluation of joints ([1]; day 35),"myeloperoxidase activities ([1]; mouse, in vivo)",EC50 [2],IC50 [3],IC50 [4],EC50 [5],inhibition at 5 µM [6],EC50 [7],inhibition at 5 µM [8],IC50 [9],EC50 [10],inhibition at 5 µM [3],inhibition at 5 µM [4],"IC50 ([6]; c-Rel binding IC50 (uM), cells without % sign)","IC50 ([8]; RelB binding IC50 (uM), cells without % sign)"
etanercept [reference compound],statistal significant anti-inflammation effects,significant reduction of inflammation,concomitant reduction,,,,,,,,,,,,,
"O=C(NC1=CC(=O)C2OC2C1O)c1cnc2ccc(Cl)cc2c1O (racemic) [Example 5, (±)-6-chloro-4-hydroxy-quinoline-3-carboxylic acid-(2-hydroxy-5-oxo-7-oxa-bicyclo[4.1.0]hept-3-en-3-yl)-amide]",,,,> 38 µM,> 481 µM,> 481 µM,> 38 µM,12%,6.5 µM,0%,230 µM,0.43 µM,,,,
"O=C(NC1=CC(=O)C2OC2C1O)c1nc2ccccc2nc1O (racemic) [Example 9, (±)-3-hydroxy-quinoxaline-2-carboxylic acid (2-hydroxy-5-oxo-7-oxa-bicyclo[4.1.0]hept-3-en-3-yl)-amide]",,,,20 µM,,,14 µM,44%,23.6 µM,22%,7.2 µM,7.4 µM,11%,22%,,
"O=C(NC1=CC(=O)C2OC2C1O)c1cc(Cl)cnc1O (racemic) [Example 7, (±)-5-chloro-2-hydroxy-N-(2-hydroxy-5-oxo-7-oxa-bicyclo[4.1.0]hept-3-en-3-yl)-nicotinamide]",,,,3.2 µM,,,15 µM,63%,6.8 µM,32%,3.6 µM,0.73 µM,19%,16%,,
"O=C(NC1=CC(=O)C2OC2C1O)c1cnc(-c2ccccc2)nc1O (racemic) [Example 8, (±)-4-hydroxy-2-phenylpyrimidine-5-carboxylic acid (2-hydroxy-5-oxo-7-oxa-bicyclo[4.1.0]hept-3-en-3-yl)-amide]",,,,10 µM,,,37 µM,46%,26.2 µM,21%,,2.2 µM,16%,17%,,
"O=C(NC1=CC(=O)C2OC2C1O)c1cnc2c(C(F)(F)F)cccc2c1O (racemic) [Example 6, (±)-4-hydroxy-8-trifluoromethyl-quinoline-3-carboxylic acid-(2-hydroxy-5-oxo-7-oxa-bicyclo[4.1.0]hept-3-en-3-yl)-amide]",,,,3.4 µM,,,18 µM,27%,6.2 µM,13%,3.3 µM,0.9 µM,0%,7%,,
"Cc1ccc(C(=O)NC2=CC(=O)C3OC3C2O)c(O)n1 (racemic) [Example 10, (±)-2-hydroxy-N-(2-hydroxy-5-oxo-7-oxa-bicyclo[4.1.0]hept-3-en-3-yl)-6-methyl-nicotinamide]",,,,4.5 µM,,,19 µM,54%,1.1 µM,27%,2.8 µM,< 0.24 µM,6%,11%,,
"O=C(NC1=CC(=O)C2OC2C1=O)c1cc2ccccc2nc1O (racemic) [Example 28, (±)-N-(2,5-dioxo-7-oxabicyclo[4.1.0]hept-3-en-3-yl)-2-hydroxyquinoline-3-carboxamide]",,,,4.2 µM,20 µM,9.6 µM,2.7 µM,,,,3 µM,0.19 µM,,,4.5 µM,3 µM
"O=C(NC1=CC(=O)C2OC2C1O)c1nc2ccccc2cc1O (racemic) [Example 15, (±)-3-hydroxy-quinoline-2-carboxylic acid-(2-hydroxy-5-oxo-7-oxa-bicyclo[4.1.0]hept-3-en-3-yl)-amide]",,,,4.9 µM,,,11 µM,6%,,0%,488 µM,1 µM,0%,0%,,
